# Assay results: patent US20220348592A1, “FUSED HETEROCYCLIC DERIVATIVES” (Janssen Sciences Ireland Unlimited Company, priority 2019, published 2022)
# Columns and labels:
# [1] = Cytotoxicity in HepG2.117 cells, ATPlite Luminescence Assay; format: cell-based, human; settings: human, incubated for 3 days, mean value, read-out: TOX-HepG2.117 CC50 (μM, mean value)
# Method: Cytotoxicity of the compounds was tested using HepG2 or HepG2.117 cells, incubated for 3 days in the presence of compounds. The viability of the cells was assessed using the PERKIN ELMER ATPlite Luminescence Assay System.”
# [2] = test system: HBV; assay: Anti-HBV activity: intracellular HBV DNA by real-time PCR in HepG2.117 cell line; format: cell-based, Hepatitis B virus; settings: Hepatitis B virus, 72 h; HepG2.117 cells, 3 days of treatment, intracellular HBV DNA by real-time PCR, mean value; read-out: HBV-AVE-HepG2.117 EC50 (μM, mean value)
# In short: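 HepG2.117 cells, a Tet-off inducible HBV-producing line, induced to replicate HBV and then treated with serially diluted compound. After 3 days, intracellular HBV DNA quantified by real-time PCR with HBV-specific primers and probe.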
SMILES,CC50 at 3 days [1] [µM],EC50 [2] [µM]
"O=C(c1ccc(Cl)c(Cl)c1)N1CCc2nn3c(c2C1)C(=O)N(Cc1ccccn1)CCC3 [Example C83, 2-(3,4-dichlorobenzoyl)-10-(pyridin-2-ylmethyl)-1,2,3,4,7,8,9,10-octahydro-11H-pyrido[4′,3′:3,4]pyrazolo[1,5-a][1,4]diazepin-11-one]",> 50,0.229
COc1ccc(C(C)N2CCn3nc4c(c3C2=O)CN(C(=O)c2ccc(Cl)c(Cl)c2)[C@H](C)C4)cc1F (some centres unmarked) [Example C86],> 50,0.046
CC(c1cc[nH]n1)N1CCn2nc3c(c2C1=O)CN(C(=O)c1ccc(Cl)c(Cl)c1)[C@H](C)C3 (some centres unmarked) [Example C87],> 50,0.066
CC(c1ccc(C#N)cc1)N1CCn2nc3c(c2C1=O)CN(C(=O)c1ccc(Cl)c(Cl)c1)[C@H](C)C3 (some centres unmarked) [Example C88],> 48,0.038
C[C@@H]1Cc2nn3c(c2CN1C(=O)c1ccc(Cl)c(Cl)c1)C(=O)N(C(C)(C)c1ccc(OC(F)F)cc1)CC3 [Example C90],21.9,0.667
C[C@@H]1Cc2nn3c(c2CN1C(=O)c1ccc(Cl)c(Cl)c1)C(=O)N(Cc1ccc(Cl)nc1)CC3 [Example C91],36.7,0.083
COc1ccc(C(C)N2CCn3nc4c(c3C2=O)CN(C(=O)c2ccc(Cl)c(Cl)c2)[C@H](C)C4)cc1OC (some centres unmarked) [Example C92],24.4,0.025
CC(c1ccccc1)N1CCn2nc3c(c2C1=O)CN(C(=O)c1ccc(Cl)c(Cl)c1)[C@H](C)C3 (some centres unmarked) [Example C93],30,0.055
"C[C@@H]1Cc2nn3c(c2CN1C(=O)c1cc2c(Cl)c(Cl)ccc2[nH]1)C(=O)N(Cc1ccccn1)CC3 [Example C94, (R)-2-(4,5-dichloro-1H-indole-2-carbonyl)-3-methyl-9-(pyridin-2-ylmethyl)-1,2,3,4,8,9-hexahydropyrido[4′,3′:3,4]pyrazolo[1,5-a]pyrazin-10(7H)-one]",4.77,0.162
C[C@@H]1Cc2nn3c(c2CN1C(=O)c1ccc(Cl)c(Cl)c1)C(=O)N(Cc1cccc(F)c1C#N)CC3 [Example C95],> 47,0.2
C[C@@H]1Cc2nn3c(c2CN1C(=O)c1cc2c(Cl)cccc2[nH]1)C(=O)N(Cc1ccccn1)CC3 [Example C96],10.7,0.025
C[C@@H]1Cc2nn3c(c2CN1C(=O)c1cc2c(F)c(F)c(F)cc2[nH]1)C(=O)N(Cc1ccccn1)CC3 [Example C97],9.79,0.011
CC(c1ccc(Br)cc1)N1CCn2nc3c(c2C1=O)CN(C(=O)c1ccc(Cl)c(Cl)c1)[C@H](C)C3 (some centres unmarked) [Example C98],9.83,0.073
CC(c1ccccn1)N1CCn2nc3c(c2C1=O)CN(C(=O)c1ccc(Cl)c(Cl)c1)[C@H](C)C3 (some centres unmarked) [Example C99],> 50,0.072
C[C@@H]1Cc2nn3c(c2CN1C(=O)c1cc2c(C#N)c(F)ccc2[nH]1)C(=O)N(Cc1ccccn1)CC3 [Example C100],15.5,0.085
C[C@@H]1Cc2nn3c(c2CN1C(=O)c1cc2c(F)c(F)ccc2[nH]1)C(=O)N(Cc1ccccn1)CC3 [Example C101],8.95,0.036
C[C@@H]1Cc2nn3c(c2CN1C(=O)c1cc2c(Cl)c(F)ccc2[nH]1)C(=O)N(Cc1ccccn1)CC3 [Example C102],7.14,0.019
CC(c1cncnc1)N1CCn2nc3c(c2C1=O)CN(C(=O)c1ccc(Cl)c(Cl)c1)[C@H](C)C3 (some centres unmarked) [Example C103],> 50,0.39
C[C@@H]1Cc2nn3c(c2CN1C(=O)c1ccn2cc(C(F)(F)F)nc2c1)C(=O)N(Cc1ccccn1)CC3 [Example C104],> 50,0.632
COc1ccc(CN2CCn3nc4c(c3C2=O)CN(C(=O)c2ccc(Cl)c(Cl)c2)[C@H](C)C4)cn1 [Example C106],33.8,0.031
Cc1c(F)ccc2[nH]c(C(=O)N3Cc4c(nn5c4C(=O)N(Cc4ccccn4)CC5)C[C@H]3C)cc12 [Example C107],13.2,0.015
C[C@@H]1Cc2nn3c(c2CN1C(=O)c1cc2c(F)ccc(F)c2[nH]1)C(=O)N(Cc1ccccn1)CC3 [Example C108],20,0.085
Cc1cc(F)cc2[nH]c(C(=O)N3Cc4c(nn5c4C(=O)N(Cc4ccccn4)CC5)C[C@H]3C)cc12 [Example C109],18.9,0.013
C[C@@H]1Cc2nn3c(c2CN1C(=O)c1cc2c(F)cc(F)cc2[nH]1)C(=O)N(Cc1ccccn1)CC3 [Example C110],16,0.017
Cc1cc(C(=O)N2Cc3c(nn4c3C(=O)N(Cc3ccccn3)CC4)C[C@H]2C)ccc1Cl [Example C111],> 50,0.086
C[C@@H]1Cc2nn3c(c2CN1C(=O)c1ccc(Cl)c(C(F)(F)F)c1)C(=O)N(Cc1ccccn1)CC3 [Example C112],> 50,0.025

SMILES,CC50 at 3 days [1] [µM],EC50 [2] [µM]
C[C@@H]1Cc2nn3c(c2CN1C(=O)c1ccc(OC(F)F)c(Cl)c1)C(=O)N(Cc1ccccn1)CC3 [Example C113],> 50,0.257
Cc1ccc(F)c2[nH]c(C(=O)N3Cc4c(nn5c4C(=O)N(Cc4ccccn4)CC5)C[C@H]3C)cc12 [Example C114],30.9,0.048
C[C@@H]1Cc2nn3c(c2CN1C(=O)c1ccc(C(F)(F)F)cc1)C(=O)N(Cc1ccccn1)CC3 [Example C115],> 50,0.265
C[C@@H]1Cc2nn3c(c2CN1C(=O)c1cc2c(Cl)cc(F)cc2[nH]1)C(=O)N(Cc1ccccn1)CC3 [Example C116],12.4,0.015
C[C@@H]1Cc2nn3c(c2CN1C(=O)c1cc2c(Cl)ccc(F)c2[nH]1)C(=O)N(Cc1ccccn1)CC3 [Example C117],18.2,0.119
C[C@@H]1Cc2nn3c(c2CN1C(=O)c1cc2c(C(F)F)c(F)ccc2[nH]1)C(=O)N(Cc1ccccn1)CC3 [Example C124],26.7,0.011
C[C@@H]1Cc2nn3c(c2CN1C(=O)c1cc2c(C(F)(F)F)c(F)ccc2[nH]1)C(=O)N(Cc1ccccn1)CC3 [Example C125],> 50,0.037
CC(c1ccc(OC(F)(F)F)cc1)N1CCn2nc3c(c2C1=O)CN(C(=O)c1ccc(Cl)c(Cl)c1)[C@H](C)C3 (some centres unmarked) [Example C127],15.7,0.133
CC(c1ccc(F)nc1)N1CCn2nc3c(c2C1=O)CN(C(=O)c1ccc(Cl)c(Cl)c1)[C@H](C)C3 (some centres unmarked) [Example C128],> 50,0.081
CC(c1ccccc1C#N)N1CCn2nc3c(c2C1=O)CN(C(=O)c1ccc(Cl)c(Cl)c1)[C@H](C)C3 (some centres unmarked) [Example C129],> 50,0.143
CC(c1ccc(Cl)nc1)N1CCn2nc3c(c2C1=O)CN(C(=O)c1ccc(Cl)c(Cl)c1)[C@H](C)C3 (some centres unmarked) [Example C130],33.7,0.082
COc1cccc(C(C)N2CCn3nc4c(c3C2=O)CN(C(=O)c2ccc(Cl)c(Cl)c2)[C@H](C)C4)c1 (some centres unmarked) [Example C131],19.6,0.038
C[C@@H]1Cc2nn3c(c2CN1C(=O)c1ccc(Cl)c(Cl)c1)C(=O)N(Cc1cncc(Cl)c1)CC3 [Example C132],> 50,0.061
C[C@@H]1Cc2nn3c(c2CN1C(=O)c1ccc(Cl)c(Cl)c1)C(=O)N(Cc1nccn1C(F)F)CC3 [Example C133],> 50,0.332
CCCn1c(C)nnc1CN1CCn2nc3c(c2C1=O)CN(C(=O)c1ccc(Cl)c(Cl)c1)[C@H](C)C3 [Example C134],> 50,> 2.5
C[C@@H]1Cc2nn3c(c2CN1C(=O)c1ccc(Cl)c(Cl)c1)C(=O)N(Cc1ccn(CC(F)(F)F)n1)CC3 [Example C135],> 50,0.1
Cc1nnc(CN2CCn3nc4c(c3C2=O)CN(C(=O)c2ccc(Cl)c(Cl)c2)[C@H](C)C4)n1C [Example C136],> 50,> 2.5
CC(C)n1ccc(CN2CCn3nc4c(c3C2=O)CN(C(=O)c2ccc(Cl)c(Cl)c2)[C@H](C)C4)n1 [Example C137],> 50,0.056
Cc1cnc(CN2CCn3nc4c(c3C2=O)CN(C(=O)c2ccc(Cl)c(Cl)c2)[C@H](C)C4)o1 [Example C138],> 50,0.061
Cc1cncc(CN2CCn3nc4c(c3C2=O)CN(C(=O)c2ccc(Cl)c(Cl)c2)[C@H](C)C4)c1 [Example C139],> 50,0.04
Cc1cc(CN2CCn3nc4c(c3C2=O)CN(C(=O)c2ccc(Cl)c(Cl)c2)[C@H](C)C4)no1 [Example C141],> 50,0.056
Cc1noc(C)c1CN1CCn2nc3c(c2C1=O)CN(C(=O)c1ccc(Cl)c(Cl)c1)[C@H](C)C3 [Example C142],> 50,0.268
C[C@@H]1Cc2nn3c(c2CN1C(=O)c1ccc(Cl)c(Cl)c1)C(=O)N(Cc1noc(C2CC2)n1)CC3 [Example C143],> 50,0.16
C[C@@H]1Cc2nn3c(c2CN1C(=O)c1ccc(Cl)c(Cl)c1)C(=O)N(Cc1ncnn1C)CC3 [Example C144],> 50,> 2.5
Cc1cc(CN2CCn3nc4c(c3C2=O)CN(C(=O)c2ccc(Cl)c(Cl)c2)[C@H](C)C4)on1 [Example C145],> 50,0.106
Cc1nonc1CN1CCn2nc3c(c2C1=O)CN(C(=O)c1ccc(Cl)c(Cl)c1)[C@H](C)C3 [Example C146],> 50,1.79
